The subject of one experiment is MDA-MB-361.1. Description: In vitro cell proliferation assay (CellTiter-Glo), MDA-MB-361.1. To be noted: Cell line: MDA-MB-361.1; Tissue type: breast; Mutation Status: PI3K; read-out: EC50 (μmole). Format: cell-based. The protocol: (§1) Efficacy of Formula I compounds was measured by a cell proliferation assay employing the following protocol (Promega Corp. Technical Bulletin TB288; Mendoza et al (2002) Cancer Res. 62:5485-5488):
(§2) 1. An aliquot of 100 μl of cell culture containing about 10^4 cells (PC3, Detroit562, or MDAMB361.1) in medium was deposited in each well of a 384-well, opaque-walled plate.
(§3) 2. Control wells were prepared containing medium and without cells.
(§4) 3. The compound was added to the experimental wells and incubated for 3-5 days.
(§5) 4. The plates were equilibrated to room temperature for approximately 30 minutes.
(§6) 5. A volume of CellTiter-Glo® Reagent equal to the volume of cell culture medium present in each well was added.
(§7) 6. The contents were mixed for 2 minutes on an orbital shaker to induce cell lysis.
(§8) 7. The plate was incubated at room temperature for 10 minutes to stabilize the luminescence signal.
(§9) 8. Luminescence was recorded and reported in graphs as RLU=relative luminescence units.
(§10) Alternatively, cells were seeded at optimal density in a 96 well plate and incubated for 4 days in the presence of test compound. Alamar Blue™ was subsequently added to the assay medium, and cells were incubated for 6 hr before reading at 544 nm excitation, 590 nm emission. EC50 values were calculated using a sigmoidal dose response curve fit. The term EC50 refers to the half maximal effective concentration and is the concentration at which a drug induces a response halfway between the baseline and maximum after some specified exposure time. It is commonly used as a measure of drug potency.
(§11) The anti-proliferative effects of Formula I exemplary compounds were measured by the CellTiter-Glo® Assay against various tumor cell lines, including the following: […]

The subject of another experiment is PC3. Description: In vitro cell proliferation assay (CellTiter-Glo), PC3. The experiment is classed as cell-based. The settings on record: Homo sapiens, PC-3; Cell line: PC3; Tissue type: prostate; Mutation Status: PTEN; read-out: EC50 (μmole). The protocol: as §1, §2, §3, §4, §5, §6, §7, §8, §9, §10, §11

For the molecule `Cc1nc(N)ncc1-c1nc(N2CCOCC2)c2nc3n(c2n1)CCOC3(C)C` [Compound 102, 5-(6,6-dimethyl-4-morpholino-8,9-dihydro-6h-[1,4]oxazino[3,4-e]purin-2-yl)-4-methylpyrimidin-2-amine], the EC50 in the experiment with MDA-MB-361.1 is 81 nM; in the experiment on PC3, 2000 nM.

Take `CC1(C)CN(c2nc(-c3cnc(N)nc3)nc3c2nc2n3CCOC2(C)C)CCO1` [Compound 172, 5-(4-(2,2-dimethylmorpholino)-6,6-dimethyl-8,9-dihydro-6H-[1,4]oxazino[3,4-e]purin-2-yl)pyrimidin-2-amine]: the EC50 amounted to 1500 nM in the experiment with MDA-MB-361.1 and 1400 nM in the experiment with PC3.

With `CC1(C)OCCc2c1sc1c(N3CCOCC3)nc(-c3cnc(N)nc3)nc21` [Compound 168, 5-(8,8-Dimethyl-1-morpholin-4-yl-5,8-dihydro-6H-7-oxa-9-thia-2,4-diaza-fluoren-3-yl)-pyrimidin-2-ylamine], the EC50 was found to be 237 nM with MDA-MB-361.1 and 215 nM with PC3.

`C[C@@H]1CN(c2nc(-c3cnc(N)nc3)nc3c2nc2n3CCOC2(C)C)C[C@H](C)O1` [Compound 171, 5-(4-((2S,6R)-2,6-dimethylmorpholino)-6,6-dimethyl-8,9-dihydro-6H-[1,4]oxazino[3,4-e]purin-2-yl)pyrimidin-2-amine]: the EC50 in the experiment with MDA-MB-361.1 came out at 3100 nM; in the experiment with PC3, 3800 nM.

Consider `FC(F)(F)C1OCCn2c1nc1c(N3CCOCC3)nc(-c3cccc4[nH]ncc34)nc12` (stereo not drawn) [Compound 169, 2-(1H-indazol-4-yl)-4-morpholino-6-(trifluoromethyl)-8,9-dihydro-6H-[1,4]oxazino[3,4-e]purine], for which the figures for the EC50 in the experiment with MDA-MB-361.1 and in the experiment with PC3 were 4400 nM and 6900 nM, respectively.

On to `CCNC(=O)Nc1ccc(-c2nc(N3CCOCC3)c3c(n2)C2(C)CCOC2N3C)cc1` (stereo not drawn) [Compound 101, 1-[4-(3a,8-dimethyl-7-morpholin-4-yl-3,3a,8,8a-tetrahydro-2h-1-oxa-4,6,8-triaza-cyclopenta[a]inden-5-yl)-phenyl]-3-ethyl-urea], for which the values for the EC50 in the experiment with MDA-MB-361.1 and in the experiment with PC3 were 315 nM and 208 nM, respectively.

For `CC1(C)CCn2c(nc3c(N4CCOCC4)nc(-c4cnc(N)nc4)nc32)O1` [Compound 115, 5-(7,7-dimethyl-4-morpholino-8,9-dihydro-7h-[1,3]oxazino[2,3-e]purin-2-yl)pyrimidin-2-amine], the EC50 stood at 958 nM in the experiment on MDA-MB-361.1 and 1800 nM with PC3.

As for `CC1(C)OCCn2c1cc1c(N3CCOCC3)nc(-c3cnc(N)nc3)nc12` [Compound 177, 5-(8,8-Dimethyl-1-morpholin-4-yl-5,6-dihydro-8H-7-oxa-2,4,4b-triaza-fluoren-3-yl)-pyrimidin-2-ylamine], the EC50 in the experiment with MDA-MB-361.1 worked out at 94 nM; in the experiment on PC3, 185 nM.

With `CC(C)NC(=O)Nc1ccc(-c2nc(N3CCOCC3)c3nc4n(c3n2)CCOC4(C)C)cc1` [Compound 165, 1-(4-(6,6-dimethyl-4-morpholino-8,9-dihydro-6H-[1,4]oxazino[3,4-e]purin-2-yl)phenyl)-3-isopropylurea], the concentration giving a half-maximal response (EC50) in the experiment with MDA-MB-361.1 came out at 1200 nM; with PC3 it was 1300 nM.

Take `Nc1ncc(-c2nc(N3CCOCC3)c3c(n2)N2CCC[C@H]2CO3)cn1` [Compound 122, 5-((S)-6-Morpholin-4-yl-2,3,3a,4-tetrahydro-1H-5-oxa-7,9,9b-triaza-cyclopenta[a]naphthalen-8-yl)-pyrimidin-2-ylamine]: the EC50 was 3200 nM in the experiment on MDA-MB-361.1 and 2000 nM with PC3.

For `CC1(C)OCCn2c1nc1c(N3C[C@@H]4C[C@H]3CO4)nc(-c3cnc(N)nc3)nc12` [Compound 174, 5-(4-((1S,4S)-2-oxa-5-azabicyclo[2.2.1]heptan-5-yl)-6,6-dimethyl-8,9-dihydro-6H-[1,4]oxazino[3,4-e]purin-2-yl)pyrimidin-2-amine], the results for the EC50 in the experiment with MDA-MB-361.1 and with PC3 were 3400 nM and 3600 nM, respectively.

Take `Nc1ncc(-c2nc(N3CCOCC3)c3nc4n(c3n2)CCO[C@H]4C(F)(F)F)cn1` [Compound 139, (R)-5-(4-morpholino-6-(trifluoromethyl)-8,9-dihydro-6H-[1,4]oxazino[3,4-e]purin-2-yl)pyrimidin-2-amine]: the EC50 in the experiment with MDA-MB-361.1 was 424 nM; in the experiment with PC3, 697 nM.

Values taken from patent US8883799B2, “Tricyclic PI3K inhibitor compounds and methods of use” (Genentech, Inc., priority 2010, dated 2014).
